According to the supplement of paper PMC10307832:

Experiments:
Experiment in all cases: relative viability (nuclei count vs DMSO), 5 days (fraction); higher = more cells survive
[1] = tested on: NCI-H838
Summary of the method: (§1)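 Values are medians from duplicate plates. Each reflects relative viability, defined as the nuclei count of treated wells over that of vehicle wells. Lung cancer cell lines in 1536-well plates were pin-tool dosed one day after seeding with one drug alone or with a fixed anchor-drug dose plus five library-drug doses (not always all listed) in √10 steps, then fixed, stained and imaged at 4× after 5 days.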

[2] = tested on: NCI-H520
Summary of the method: as §1

[3] = tested on: H3255
Summary of the method: as §1

[4] = tested on: NCI-H2405
Summary of the method: as §1

[5] = tested on: EPLC-272H
Summary of the method: as §1

[6] = tested on: HCC-827
Summary of the method: as §1

[7] = tested on: NCI-H1395
Summary of the method: as §1

[8] = tested on: NCI-H2087
Summary of the method: as §1

[9] = tested on: NCI-H1651
Summary of the method: as §1

[10] = tested on: EMC-BAC-2
Summary of the method: as §1

[11] = tested on: NCI-H2085
Summary of the method: as §1

[12] = tested on: NCI-H1793
Summary of the method: as §1

[13] = tested on: LCLC-103H
Summary of the method: as §1

[14] = tested on: SK-MES-1
Summary of the method: as §1

[15] = tested on: NCI-H650
Summary of the method: as §1

[16] = tested on: NCI-H1944
Summary of the method: as §1

[17] = tested on: ChaGo-K-1
Summary of the method: as §1

[18] = tested on: LU99A
Summary of the method: as §1

[19] = tested on: HCC-44
Summary of the method: as §1

[20] = tested on: NCI-H2023
Summary of the method: as §1

[21] = tested on: COR-L23
Summary of the method: as §1

Question: Which results are given for O=c1cc(-c2cccc3c2Sc2ccccc2S3)oc(N2CCOCC2)c1 + Nc1ncn([C@H]2C[C@H](O)[C@@H](CO)O2)c(=O)n1 [Decitabine] (partner 2 µM)?
Answer: relative viability ([1]; first compound 0.08 µM): 0.471; relative viability ([1]; first compound 0.253 µM): 0.519; relative viability ([1]; first compound 0.8 µM): 0.457; relative viability ([1]; first compound 2.53 µM): 0.452; relative viability ([1]; first compound 8 µM): 0.497; relative viability ([2]; first compound 0.08 µM): 0.518; relative viability ([2]; first compound 0.253 µM): 0.623; relative viability ([2]; first compound 0.8 µM): 0.577; relative viability ([2]; first compound 2.53 µM): 0.499; relative viability ([2]; first compound 8 µM): 0.548; relative viability ([3]; first compound 0.08 µM): 0.653; relative viability ([3]; first compound 0.253 µM): 0.68; relative viability ([3]; first compound 0.8 µM): 0.631; relative viability ([3]; first compound 2.53 µM): 0.558; relative viability ([3]; first compound 8 µM): 0.689; relative viability ([4]; first compound 0.08 µM): 0.697; relative viability ([4]; first compound 0.253 µM): 0.864; relative viability ([4]; first compound 0.8 µM): 0.677; relative viability ([4]; first compound 2.53 µM): 0.695; relative viability ([4]; first compound 8 µM): 0.756; relative viability ([5]; first compound 0.08 µM): 0.341; relative viability ([5]; first compound 0.253 µM): 0.409; relative viability ([5]; first compound 0.8 µM): 0.363; relative viability ([5]; first compound 2.53 µM): 0.343; relative viability ([5]; first compound 8 µM): 0.366; relative viability ([6]; first compound 0.08 µM): 0.266; relative viability ([6]; first compound 0.253 µM): 0.341; relative viability ([6]; first compound 0.8 µM): 0.315; relative viability ([6]; first compound 2.53 µM): 0.219; relative viability ([6]; first compound 8 µM): 0.344; relative viability ([7]; first compound 0.08 µM): 0.711; relative viability ([7]; first compound 0.253 µM): 0.825; relative viability ([7]; first compound 0.8 µM): 0.736; relative viability ([7]; first compound 2.53 µM): 0.718; relative viability ([7]; first compound 8 µM): 0.763; relative viability ([8]; first compound 0.08 µM): 0.231; relative viability ([8]; first compound 0.253 µM): 0.257; relative viability ([8]; first compound 0.8 µM): 0.266; relative viability ([8]; first compound 2.53 µM): 0.242; relative viability ([8]; first compound 8 µM): 0.238; relative viability ([9]; first compound 0.08 µM): 0.575; relative viability ([9]; first compound 0.253 µM): 0.766; relative viability ([9]; first compound 0.8 µM): 0.617; relative viability ([9]; first compound 2.53 µM): 0.555; relative viability ([9]; first compound 8 µM): 0.628; relative viability ([10]; first compound 0.08 µM): 0.91; relative viability ([10]; first compound 0.253 µM): 1.1; relative viability ([10]; first compound 0.8 µM): 1.01; relative viability ([10]; first compound 2.53 µM): 1.04; relative viability ([10]; first compound 8 µM): 1.12; relative viability ([11]; first compound 0.08 µM): 0.532; relative viability ([11]; first compound 0.253 µM): 0.578; relative viability ([11]; first compound 0.8 µM): 0.52; relative viability ([11]; first compound 2.53 µM): 0.519; relative viability ([11]; first compound 8 µM): 0.537; relative viability ([12]; first compound 0.08 µM): 0.536; relative viability ([12]; first compound 0.253 µM): 0.614; relative viability ([12]; first compound 0.8 µM): 0.478; relative viability ([12]; first compound 2.53 µM): 0.487; relative viability ([12]; first compound 8 µM): 0.476; relative viability ([13]; first compound 0.08 µM): 0.721; relative viability ([13]; first compound 0.253 µM): 0.716; relative viability ([13]; first compound 0.8 µM): 0.646; relative viability ([13]; first compound 2.53 µM): 0.675; relative viability ([13]; first compound 8 µM): 0.702; relative viability ([14]; first compound 0.08 µM): 0.337; relative viability ([14]; first compound 0.253 µM): 0.406; relative viability ([14]; first compound 0.8 µM): 0.352; relative viability ([14]; first compound 2.53 µM): 0.458; relative viability ([14]; first compound 8 µM): 0.375; relative viability ([15]; first compound 0.08 µM): 0.317; relative viability ([15]; first compound 0.253 µM): 0.352; relative viability ([15]; first compound 0.8 µM): 0.513; relative viability ([15]; first compound 2.53 µM): 0.322; relative viability ([15]; first compound 8 µM): 0.29; relative viability ([16]; first compound 0.08 µM): 0.406; relative viability ([16]; first compound 0.253 µM): 0.448; relative viability ([16]; first compound 0.8 µM): 0.457; relative viability ([16]; first compound 2.53 µM): 0.432; relative viability ([16]; first compound 8 µM): 0.468; relative viability ([17]; first compound 0.08 µM): 0.542; relative viability ([17]; first compound 0.253 µM): 0.555; relative viability ([17]; first compound 0.8 µM): 0.541; relative viability ([17]; first compound 2.53 µM): 0.51; relative viability ([17]; first compound 8 µM): 0.555; relative viability ([18]; first compound 0.08 µM): 0.897; relative viability ([18]; first compound 0.253 µM): 0.996; relative viability ([18]; first compound 0.8 µM): 1.04; relative viability ([18]; first compound 2.53 µM): 0.866; relative viability ([18]; first compound 8 µM): 1.18; relative viability ([19]; first compound 0.08 µM): 0.93; relative viability ([19]; first compound 0.253 µM): 1.02; relative viability ([19]; first compound 0.8 µM): 0.968; relative viability ([19]; first compound 2.53 µM): 0.88; relative viability ([19]; first compound 8 µM): 0.965; relative viability ([20]; first compound 0.08 µM): 0.214; relative viability ([20]; first compound 0.253 µM): 0.276; relative viability ([20]; first compound 0.8 µM): 0.25; relative viability ([20]; first compound 2.53 µM): 0.245; relative viability ([20]; first compound 8 µM): 0.229; relative viability ([21]; first compound 0.08 µM): 0.429; relative viability ([21]; first compound 0.253 µM): 0.513; relative viability ([21]; first compound 0.8 µM): 0.386; relative viability ([21]; first compound 2.53 µM): 0.508; relative viability ([21]; first compound 8 µM): 0.588
